Measurements from publication PMC8968710, “Structural insights into the substrate-bound condensation domains of non-ribosomal peptide synthetase AmbB” (Scientific Reports, 2022).

Tests used:
AmbB T–C [1] = biological target: T1, AmbB T–C (Pseudomonas aeruginosa, UniProt Q9I1H0); assay: X-ray crystallography, […] Å; LC-MS; assay type: binding; details: covalent; on Ser768 of T domain, arm in donor channel of C domain
T1 construct: T-C bidomain, residues 727-1249, GST tag cleaved (pGEX-6P-1), E. coli host, holo form made with Sfp; Ppant on Ser768
T1 sequence (Q9I1H0 727-1249): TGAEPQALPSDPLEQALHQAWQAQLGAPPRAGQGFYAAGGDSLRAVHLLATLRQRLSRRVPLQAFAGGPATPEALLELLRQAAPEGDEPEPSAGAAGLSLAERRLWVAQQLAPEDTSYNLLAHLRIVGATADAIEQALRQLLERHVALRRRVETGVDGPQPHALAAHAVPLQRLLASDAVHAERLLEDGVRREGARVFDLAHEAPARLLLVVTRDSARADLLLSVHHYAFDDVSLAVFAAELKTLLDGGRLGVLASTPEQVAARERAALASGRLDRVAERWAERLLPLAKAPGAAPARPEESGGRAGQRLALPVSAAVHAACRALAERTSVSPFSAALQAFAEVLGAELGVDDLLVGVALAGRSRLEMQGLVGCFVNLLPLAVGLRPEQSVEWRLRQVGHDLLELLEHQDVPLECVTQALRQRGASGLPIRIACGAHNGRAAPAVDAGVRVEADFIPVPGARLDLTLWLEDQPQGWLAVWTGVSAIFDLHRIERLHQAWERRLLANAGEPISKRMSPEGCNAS

full-length AmbB = biological target: T2, full-length AmbB (Pseudomonas aeruginosa, UniProt Q9I1H0); assay: […]-alanine aminoacylation/TCA precipitation radioassay; colorimetric pyrophosphate adenylation assay; assay type: biochemical; details: 5 mM ATP, 5 mM MgCl2; radioassay with labelled compound
T2 construct: full length, cleavable N-terminal SUMO tag (pET28a), NiNTA purified, E. coli host
T2 sequence (Q9I1H0 whole entry): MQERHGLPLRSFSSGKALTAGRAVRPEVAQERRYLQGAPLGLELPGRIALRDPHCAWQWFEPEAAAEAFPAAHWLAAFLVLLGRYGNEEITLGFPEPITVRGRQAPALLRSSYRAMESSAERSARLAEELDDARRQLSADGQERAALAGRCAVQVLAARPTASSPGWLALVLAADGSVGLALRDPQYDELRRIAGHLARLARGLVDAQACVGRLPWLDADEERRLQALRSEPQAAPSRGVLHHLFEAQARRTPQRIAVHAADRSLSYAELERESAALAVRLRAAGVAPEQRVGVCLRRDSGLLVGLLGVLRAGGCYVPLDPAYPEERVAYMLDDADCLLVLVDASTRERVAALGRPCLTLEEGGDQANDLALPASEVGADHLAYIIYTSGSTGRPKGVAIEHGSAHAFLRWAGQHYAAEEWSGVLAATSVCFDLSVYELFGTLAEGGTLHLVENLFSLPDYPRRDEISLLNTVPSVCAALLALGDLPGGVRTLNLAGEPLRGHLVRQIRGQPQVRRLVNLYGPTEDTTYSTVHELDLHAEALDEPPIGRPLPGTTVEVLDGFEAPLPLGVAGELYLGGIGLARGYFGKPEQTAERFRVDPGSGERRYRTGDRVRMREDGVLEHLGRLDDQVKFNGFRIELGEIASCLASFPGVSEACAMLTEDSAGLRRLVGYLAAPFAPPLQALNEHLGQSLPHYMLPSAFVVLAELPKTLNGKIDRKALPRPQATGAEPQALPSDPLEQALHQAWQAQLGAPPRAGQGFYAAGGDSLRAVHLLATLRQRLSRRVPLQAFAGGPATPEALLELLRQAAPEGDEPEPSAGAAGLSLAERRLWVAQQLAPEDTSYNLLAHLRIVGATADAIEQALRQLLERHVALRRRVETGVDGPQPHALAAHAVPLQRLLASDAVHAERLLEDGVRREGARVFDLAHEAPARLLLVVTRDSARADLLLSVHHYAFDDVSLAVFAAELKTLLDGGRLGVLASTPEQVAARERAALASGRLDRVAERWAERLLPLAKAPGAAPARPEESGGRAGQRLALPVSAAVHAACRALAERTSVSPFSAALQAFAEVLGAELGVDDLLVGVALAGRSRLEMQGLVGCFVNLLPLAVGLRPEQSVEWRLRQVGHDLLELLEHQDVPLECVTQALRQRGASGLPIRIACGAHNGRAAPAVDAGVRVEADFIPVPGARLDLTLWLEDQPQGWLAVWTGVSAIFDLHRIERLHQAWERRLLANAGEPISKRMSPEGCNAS

AmbB T–C [2] = biological target: T1, AmbB T–C; assay: X-ray crystallography, […] Å; LC-MS; assay type: binding; details: covalent; on Ser768 of T domain, L-Ala thioester near His953 of C domain; possible Ppant/Ppant-L-Ala mixture

SMILES: CC(C)(COP(=O)(O)O)[C@@H](O)C(=O)NCCC(=O)NCCS [Ppant]
- X-ray crystallography, 2.2 Å; LC-MS (AmbB T–C [1]): Structure of holo AmbB T–C with Ppant (cyan stick) covalently attached to Ser768

SMILES: C[C@H](N)C(=O)O [L-Ala]
- 14C-alanine aminoacylation/TCA precipitation radioassay; colorimetric pyrophosph (full-length AmbB): apo full-length AmbB, which activates L-Ala (Supplementary Fig. S4a)

SMILES: C[C@H](N)C(=O)SCCNC(=O)CCNC(=O)[C@H](O)C(C)(C)COP(=O)(O)O [Ppant-L-Ala]
- X-ray crystallography, 2.5 Å; LC-MS (AmbB T–C [2]): chains B and D exhibit relatively well-defined electron density for Ppant-L-Ala
